Holding throughout (assay): Post-emergence efficacy, glasshouse
What all share (assay type): in vivo
Common to all, as to conditions: evaluated after 13 days, 100=total damage to plant, 0=no damage to plant

In test [1] the test system is Amaranthus palmeri (AMAPA). The method in brief:
(§1)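 Plants grown 14 days in standard soil in pots in the glasshouse (24/16° C. day/night, 14 h light, 65% humidity) were sprayed with test compound diluted in 0.25% or 1% Empicol ESC70 plus 1% ammonium sulphate in water. Damage was scored 13 days later (0 = none, 100 = total).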

The subject of test [2] is Chenopodium album (CHEAL). In outline:
as §1

In test [3] the test system is Digitaria sanguinalis (DIGSA). In outline:
as §1

The test system of test [4] is Echinochloa crus-galli (ECHCG). The method in brief:
as §1

The test system of test [5] is Eleusine indica (ELEIN). The method in brief: as §1
Test [6] concerns Euphorbia heterophylla (EPHHL). The method in brief: as §1
Test [7] has as its system Ipomoea hederacea (IPOHE). The method in brief: as §1
Test [8] deals with Lolium perenne (LOLPE). In outline: as §1
Test [9] relates to Setaria faberi (SETFA). The method in brief:
as §1

The mark [10] stands for this setting: Amaranthus palmeri, post-emergence, 312 h, Application Rate 1000 g/Ha, read-out: Control of weed species after post-emergence application, AMAPA.
The mark [11] stands for this setting: Chenopodium album, post-emergence, 312 h, Application Rate 1000 g/Ha, read-out: Control of weed species after post-emergence application, CHEAL.
The mark [12] stands for this setting: Digitaria sanguinalis, post-emergence, 312 h, Application Rate 1000 g/Ha, read-out: Control of weed species after post-emergence application, DIGSA.
Setting [13] is: Echinochloa crus-galli, post-emergence, 312 h, Application Rate 1000 g/Ha, read-out: Control of weed species after post-emergence application, ECHCG.
Where [14] appears, read: Eleusine indica, post-emergence, 312 h, Application Rate 1000 g/Ha, read-out: Control of weed species after post-emergence application, ELEIN.
[15] abbreviates: Euphorbia heterophylla, post-emergence, 312 h, Application Rate 1000 g/Ha, read-out: Control of weed species after post-emergence application, EPHHL.
[16] abbreviates: Ipomoea hederacea, post-emergence, 312 h, Application Rate 1000 g/Ha, read-out: Control of weed species after post-emergence application, IPOHE.
The mark [17] stands for this setting: Lolium perenne, post-emergence, 312 h, Application Rate 1000 g/Ha, read-out: Control of weed species after post-emergence application, LOLPE.
Where [18] appears, read: Setaria faberi, post-emergence, 312 h, Application Rate 1000 g/Ha, read-out: Control of weed species after post-emergence application, SETFA.

Consider “ethoxy-[(2-methylcinnolin-2-ium-4-yl)methyl]phosphinic acid [Compound A51]”, for which the “Control of weed species after post-emergence application, AMAPA” value in test [1] (Application Rate 1000 g/Ha) is given as 90. In addition, the “Control of weed species after post-emergence application, CHEAL” value in [2] (Application Rate 1000 g/Ha) worked out at 60. Further, in test [3] (Application Rate 1000 g/Ha), the “Control of weed species after post-emergence application, DIGSA” value is 90. Besides, the “Control of weed species after post-emergence application, ECHCG” value in [4] (Application Rate 1000 g/Ha) is on record as 70. For the same molecule, the “Control of weed species after post-emergence application, ELEIN” value in [5] (Application Rate 1000 g/Ha) came out at 80. Also, the “Control of weed species after post-emergence application, EPHHL” value in [6] (Application Rate 1000 g/Ha) was found to be 90. Further, the “Control of weed species after post-emergence application, IPOHE” value in [7] (Application Rate 1000 g/Ha) came out at 60. Besides, the “Control of weed species after post-emergence application, LOLPE” value in test [8] (Application Rate 1000 g/Ha) came out at 20. The “Control of weed species after post-emergence application, SETFA” value in [9] (Application Rate 1000 g/Ha) worked out at 90.
Take `O=P(O)(O)CCCc1c[n+](CCCP(=O)(O)O)nc2ccccc12` [Compound A82, 3-[2-(3-phosphonopropyl)cinnolin-2-ium-4-yl]propylphosphonic acid chloride]: the pest or weed control at 1000 g/ha in [1] (setting [10]) amounted to 30%; in test [2] (setting [11]), 0%; in test [3] (setting [12]), 10%; in test [4] (setting [13]) it was 20%; in test [5] (setting [14]), 10%; in [6] (setting [15]), 20%. For the same molecule, the pest or weed control at 1000 g/ha in test [7] (setting [16]) was determined as 10%; in test [8] (setting [17]), 10%; in test [9] (setting [18]) it was 0%.
`COP(=O)([O-])c1c[n+](CC(=O)NS(C)(=O)=O)nc2ccccc12` [Compound A63, [2-[2-(methanesulfonamido)-2-oxo-ethyl]cinnolin-2-ium-4-yl]-methoxy-phosphinate]: the pest or weed control at 1000 g/ha in test [1] (setting [10]) was found to be 30%; in test [2] (setting [11]) it was 30%; in test [3] (setting [12]), 70%; in test [4] (setting [13]), 50%; in test [5] (setting [14]), 50%; in test [6] (setting [15]), 70%. The pest or weed control at 1000 g/ha in test [7] (setting [16]) was 30%; in test [8] (setting [17]), 10%; in [9] (setting [18]), 60%.
In the case of `C[n+]1cc(C(=O)[N-]S(=O)(=O)C(C)(C)C)c2ccccc2n1` [Compound A36], the pest or weed control at 1000 g/ha came out at 40% in test [1] (setting [10]); 30% in test [2] (setting [11]); 10% in test [3] (setting [12]); 10% in test [4] (setting [13]); 30% in [5] (setting [14]); 20% in [6] (setting [15]). The pest or weed control at 1000 g/ha in test [7] (setting [16]) turned out to be 30%; in [8] (setting [17]) it was 0%; in [9] (setting [18]), 30%.
As for `CCOP(=O)([O-])c1c[n+](C(C)C)nc2ccccc12` [Compound A77], the pest or weed control at 500 g/ha was 100% in test [1] (Amaranthus palmeri, post-emergence, 312 h, Application Rate 500 g/Ha, read-out: Control of weed species after post-emergence application, AMAPA); 90% in [2] (Chenopodium album, post-emergence, 312 h, Application Rate 500 g/Ha, read-out: Control of weed species after post-emergence application, CHEAL); 90% in [3] (Digitaria sanguinalis, post-emergence, 312 h, Application Rate 500 g/Ha, read-out: Control of weed species after post-emergence application, DIGSA); 50% in [4] (Echinochloa crus-galli, post-emergence, 312 h, Application Rate 500 g/Ha, read-out: Control of weed species after post-emergence application, ECHCG); 100% in test [5] (Eleusine indica, post-emergence, 312 h, Application Rate 500 g/Ha, read-out: Control of weed species after post-emergence application, ELEIN); 80% in test [6] (Euphorbia heterophylla, post-emergence, 312 h, Application Rate 500 g/Ha, read-out: Control of weed species after post-emergence application, EPHHL). The pest or weed control at 500 g/ha stood at 90% in [7] (Ipomoea hederacea, post-emergence, 312 h, Application Rate 500 g/Ha, read-out: Control of weed species after post-emergence application, IPOHE); 30% in test [8] (Lolium perenne, post-emergence, 312 h, Application Rate 500 g/Ha, read-out: Control of weed species after post-emergence application, LOLPE); 90% in [9] (Setaria faberi, post-emergence, 312 h, Application Rate 500 g/Ha, read-out: Control of weed species after post-emergence application, SETFA).
On to `C[n+]1nc2ccccc2c(C(=O)[O-])c1-c1ccccc1` [Compound A60], for which the pest or weed control at 1000 g/ha in test [1] (setting [10]) was 100%; in test [2] (setting [11]) it was 100%; in test [3] (setting [12]), 90%; in test [4] (setting [13]) it was 50%; in [5] (setting [14]), 100%; in test [6] (setting [15]), 100%. Further, the pest or weed control at 1000 g/ha in [7] (setting [16]) came out at 100%; in test [8] (setting [17]), 40%; in test [9] (setting [18]), 70%.
`CN(C)S(=O)(=O)[N-]C(=O)c1c[n+](C)nc2ccccc12` [Compound A11]: the pest or weed control at 1000 g/ha worked out at 40% in test [1] (setting [10]); 60% in [2] (setting [11]); 40% in [3] (setting [12]); 50% in test [4] (setting [13]); 30% in [5] (setting [14]); 70% in [6] (setting [15]). Moreover, the results for the pest or weed control at 1000 g/ha in test [7] (setting [16]), in [8] (setting [17]) and in test [9] (setting [18]) were 60%, 20% and 50%, respectively.
On to `C[n+]1cc(C(=O)O)c2ccccc2n1` [Compound A29], for which the pest or weed control at 1000 g/ha in test [1] (setting [10]) stood at 90%; in test [2] (setting [11]) it was 90%; in test [3] (setting [12]), 30%; in test [4] (setting [13]), 40%; in [5] (setting [14]), 20%; in test [6] (setting [15]), 80%. Besides, the pest or weed control at 1000 g/ha in [7] (setting [16]) came to 80%; in [8] (setting [17]) it was 40%; in test [9] (setting [18]), 50%.
On to `CCCC[n+]1cc(C(=O)[N-]S(C)(=O)=O)c2ccccc2n1` [Compound A41], for which the pest or weed control at 1000 g/ha in test [1] (setting [10]) came to 80%; in [2] (setting [11]), 60%; in [3] (setting [12]) it was 40%; in test [4] (setting [13]) it was 20%; in test [5] (setting [14]) it was 30%; in test [6] (setting [15]) it was 100%. Besides, the results for the pest or weed control at 1000 g/ha in [7] (setting [16]), in test [8] (setting [17]) and in test [9] (setting [18]) were 80%, 30% and 40%, respectively.
For the molecule `CC[n+]1cc(P(=O)([O-])O)c2ccccc2n1` [Compound A66], the pest or weed control at 1000 g/ha in test [1] (setting [10]) came out at 40%; in [2] (setting [11]), 30%; in [3] (setting [12]), 90%; in [4] (setting [13]) it was 60%; in test [5] (setting [14]), 70%; in [6] (setting [15]) it was 80%. The pest or weed control at 1000 g/ha was found to be 60% in test [7] (setting [16]), 10% in test [8] (setting [17]) and 70% in [9] (setting [18]).
For the molecule `C[n+]1cc(C(=O)[N-]S(=O)(=O)C(F)(F)F)c2ccccc2n1` [Compound A44], the pest or weed control at 1000 g/ha in [1] (setting [10]) stood at 80%; in test [2] (setting [11]) it was 40%; in test [3] (setting [12]), 0%; in test [4] (setting [13]), 20%; in test [5] (setting [14]) it was 0%; in test [6] (setting [15]) it was 30%. In addition, the pest or weed control at 1000 g/ha in test [7] (setting [16]) turned out to be 20%; in test [8] (setting [17]) it was 0%; in test [9] (setting [18]), 20%.

(Values after patent US20220132847A1, “CINNOLINIUM COMPOUNDS FOR USE IN A METHOD OF CONTROLLING UNWANTED PLANT GROWTH” (SYNGENTA CROP PROTECTION AG, priority 2019, published 2022).)
